Reference: publication PMC7255801, “Disease-associated mutations in the human TRPM3 render the channel overactive via two distinct mechanisms” (eLife, 2020)

Target: T1, hTRPM3_1325 V990M (Homo sapiens, UniProt Q9HCF6, V1015M)
T1 construct: expressed in transfected cells; host or cells: Xenopus laevis oocytes (cRNA injection)
T1 sequence (Q9HCF6 1-1325 isoform Q9HCF6-10 V990M): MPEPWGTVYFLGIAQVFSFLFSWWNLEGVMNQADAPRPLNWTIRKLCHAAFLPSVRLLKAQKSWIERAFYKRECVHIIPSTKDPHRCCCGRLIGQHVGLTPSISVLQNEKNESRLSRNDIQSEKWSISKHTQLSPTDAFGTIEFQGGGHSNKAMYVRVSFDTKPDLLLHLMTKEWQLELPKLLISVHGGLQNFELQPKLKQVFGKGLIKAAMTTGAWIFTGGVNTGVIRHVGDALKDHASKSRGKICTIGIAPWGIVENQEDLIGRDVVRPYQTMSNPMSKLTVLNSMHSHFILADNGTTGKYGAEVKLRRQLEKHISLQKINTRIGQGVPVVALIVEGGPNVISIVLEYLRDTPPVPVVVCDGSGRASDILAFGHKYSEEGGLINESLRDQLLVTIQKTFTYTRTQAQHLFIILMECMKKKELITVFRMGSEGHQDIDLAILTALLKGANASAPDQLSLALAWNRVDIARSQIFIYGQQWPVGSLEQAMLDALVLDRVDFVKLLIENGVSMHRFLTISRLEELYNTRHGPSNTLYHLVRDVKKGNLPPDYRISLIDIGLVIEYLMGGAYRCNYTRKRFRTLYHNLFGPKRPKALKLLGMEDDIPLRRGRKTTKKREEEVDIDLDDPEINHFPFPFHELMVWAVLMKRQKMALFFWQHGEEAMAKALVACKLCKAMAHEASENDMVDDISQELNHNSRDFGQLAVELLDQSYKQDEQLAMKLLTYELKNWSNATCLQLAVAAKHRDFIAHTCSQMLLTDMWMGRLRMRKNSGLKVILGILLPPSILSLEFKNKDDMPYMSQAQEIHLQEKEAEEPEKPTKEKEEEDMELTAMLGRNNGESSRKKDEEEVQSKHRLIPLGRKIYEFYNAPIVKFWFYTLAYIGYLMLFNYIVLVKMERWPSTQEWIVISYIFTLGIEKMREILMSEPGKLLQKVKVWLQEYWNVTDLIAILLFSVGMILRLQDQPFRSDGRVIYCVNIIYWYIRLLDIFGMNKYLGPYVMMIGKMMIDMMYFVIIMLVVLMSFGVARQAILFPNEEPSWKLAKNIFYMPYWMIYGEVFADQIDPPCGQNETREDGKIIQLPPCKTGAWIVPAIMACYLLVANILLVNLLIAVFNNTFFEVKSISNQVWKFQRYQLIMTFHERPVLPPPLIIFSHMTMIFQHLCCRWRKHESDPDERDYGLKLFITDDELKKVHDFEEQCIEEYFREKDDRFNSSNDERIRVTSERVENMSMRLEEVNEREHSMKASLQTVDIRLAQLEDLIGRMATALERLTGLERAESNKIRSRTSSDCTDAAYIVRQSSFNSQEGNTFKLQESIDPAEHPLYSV
Test: Two electrode voltage clamp in Xenopus oocytes, V990M mutant
Assay type: cell-based
Conditions: V990M compared with P1090Q, 50 μM, 100 and −100 mV, room temperature (20–22°C)
Method: Xenopus laevis oocytes were prepared as described earlier ([Badheka et al., 2015]). All animal procedures were approved by the Institutional Animal Care and Use Committee at Rutgers New Jersey Medical School. In brief, frogs were anesthetized in 0.25% ethyl 3-aminobenzoate methanesulfonate solution (MS222; Sigma-Aldrich); bags of ovaries were removed surgically from the anesthetized frogs. Individual oocytes were obtained by overnight digestion at 16°C in 0.2–0.3 mg/ml type 1A collagenase (Sigma-Aldrich), dissolved in a solution containing 82.5 mM NaCl, 2 mM KCl, 1 mM MgCl2, and […] HEPES, pH 7.4 (OR2 solution). The next day the collagenase containing solution was discarded and the oocytes were washed multiple times with OR2 solution. […]
Two electrode voltage clamp experiments were performed as described ([Badheka et al., 2015]). In brief, oocytes were placed in extracellular solution (97 mM NaCl, 2 mM KCl, 1 mM MgCl2, and […] HEPES, pH 7.4), and currents were recorded with thin-wall inner filament– containing glass pipettes (World Precision Instruments) filled with 3 M KCl in 1% agarose. Currents were measured with a ramp protocol from −100 to 100 mV once every 0.5 s with a GeneClamp 500B amplifier and analyzed with the pClamp 9.0 software (Molecular Devices). […]

In the case of CCC1(c2ccccc2)C(=O)NCNC1=O [primidone], the “Inhibition of basal current” value is reported as “significantly larger inhibition”.
